Reference: the Deep4Chem optical property database

Test: photoluminescence quantum yield (fraction); solvent given as SMILES
[1] = in c1ccc2c(c1)c1ccccc1n2-c1ccc(-c2ccc(-n3c4ccccc4c4ccccc43)cc2)cc1

Molecule Cc1ccc2[nH]c(-c3ccc(-c4ccc(-c5ccc(-c6nc7cc(C)ccc7[nH]6)cc5)c(C)c4)cc3)nc2c1 has a photoluminescence quantum yield (in CN(C)C=O) of 0.86.

CC(C)[Si](C#Cc1ccc(C#C[Si](C(C)C)(C(C)C)C(C)C)c2nc3cc4c(cc3nc12)[C@H]1c2ccccc2[C@@H]4c2ccccc21)(C(C)C)C(C)C showed a photoluminescence quantum yield (in CCCCCC) of 0.02 and a photoluminescence quantum yield (in ClCCl) of 0.02.

In the case of O=C1c2ccc(-c3ccc(N(c4ccccc4)c4ccccc4)cc3)cc2S(=O)(=O)c2cccc(-c3ccc(N(c4ccccc4)c4ccccc4)cc3)c21, the photoluminescence quantum yield [1] is reported as 0.04.

In the case of C[N+]1=C(/C=C/C2=C3Oc4c(cc5c6c4CCCN6CCC5)C(c4ccccc4C(=O)O)=C3CCC2)C(C)(C)c2c1ccc1ccccc21, the photoluminescence quantum yield (in CC#N) is reported as 0.2, the photoluminescence quantum yield (in CCO) is reported as 0.29 and the photoluminescence quantum yield (in CO) is reported as 0.3. For the same molecule, the photoluminescence quantum yield (in ClC(Cl)Cl) was 0.46.

Work on CCCCCCc1cc2c3c(c1)c(=C1c4ccccc4S(=O)(=O)c4ccccc41)c1cc(CCCCCC)cc4c1N3c1c(cc(CCCCCC)cc1c4=C1c3ccccc3S(=O)(=O)c3ccccc31)c2=C1c2ccccc2S(=O)(=O)c2ccccc21 yielded a photoluminescence quantum yield (in ClCCl) of 0.47.

With CC1(C)c2ccccc2N(c2ccc(-c3ccc(C#N)cc3)cc2)c2ccccc21 the photoluminescence quantum yield (in Cc1ccccc1) was 0.178 and the photoluminescence quantum yield (in N#Cc1ccc2c(c1)c1ccccc1n2-c1cccc(-n2c3ccccc3c3ccccc32)c1) was 0.36.

O=C1c2cc(F)ccc2-c2cnccc21 showed a photoluminescence quantum yield (in CC#N) of 0.015, a photoluminescence quantum yield (in CCCCCC) of 0.0017 and a photoluminescence quantum yield (in CCOC(C)=O) of 0.02. For the same molecule, the photoluminescence quantum yield (in Cc1ccccc1) was 0.012 and the photoluminescence quantum yield (in ClCCl) was 0.018.

For c1ccc2c(c1)-c1ccccc1C21c2ccccc2-c2c1c1c3ccccc3ccc1c1ccccc21, the photoluminescence quantum yield (in Cc1ccccc1) was 0.61.

O=c1cc2c(-c3c(O)c4cccc5ccc6oc(=O)cc3c6c54)c(O)c3cccc4ccc(o1)c2c43 gave a photoluminescence quantum yield (in CC1CCCO1) of 0.13.

Molecule CC(C)[Si](C#Cc1c2ccc(C(C)(C)C)cc2c(C#Cc2c3ccc(C(C)(C)C)cc3c(C#Cc3c4ccc(C(C)(C)C)cc4c(C#C[Si](C(C)C)(C(C)C)C(C)C)c4ccc(C(C)(C)C)cc34)c3ccc(C(C)(C)C)cc23)c2ccc(C(C)(C)C)cc12)(C(C)C)C(C)C has a photoluminescence quantum yield (in Cc1ccccc1) of 0.022.

In the case of CC1(C)c2ccccc2N(c2ccc3c(c2)-c2cc(N4c5ccccc5C(C)(C)c5ccccc54)ccc2P3(=O)c2ccccc2)c2ccccc21, the photoluminescence quantum yield (in Cc1ccccc1) is reported as 0.55 and the photoluminescence quantum yield [1] is reported as 0.56.

Work on COc1ccc2c(c1)c1c(c3cc(OC)ccc32)=[N+]2C(=C(c3c(C)cc(C)cc3C)c3cc4c5cc(OC)ccc5c5ccc(OC)cc5c4n3[B-]2(F)F)C=1 yielded a photoluminescence quantum yield (in C1CCCCC1) of 0.08, a photoluminescence quantum yield (in C1CCOC1) of 0.001 and a photoluminescence quantum yield (in CC#N) of 0.01. For the same molecule, the photoluminescence quantum yield (in Cc1ccccc1) was 0.001 and the photoluminescence quantum yield (in ClCCl) was 0.001.

Work on FC(F)(F)c1ccc(-c2ccc(-c3cc(-c4ccccn4)nc(-c4ccccn4)c3)cc2)cc1 yielded a photoluminescence quantum yield (in ClCCl) of 0.17.

In the case of Nc1ccccc1C(=O)O, the photoluminescence quantum yield (in C1CCCCC1) is reported as 0.29, the photoluminescence quantum yield (in CC#N) is reported as 0.56 and the photoluminescence quantum yield (in CC(C)=O) is reported as 0.31. For the same molecule, the photoluminescence quantum yield (in CCO) was 0.59, the photoluminescence quantum yield (in CS(C)=O) was 0.64 and the photoluminescence quantum yield (in O) was 0.6. The photoluminescence quantum yield (in OCC(F)(F)F) was 0.27 and the photoluminescence quantum yield (in c1ccccc1) was 0.39.

Molecule CCN(CC)c1ccc2cc(/C=C(\C#N)c3nc4ccccc4o3)c(=O)oc2c1 has a photoluminescence quantum yield (in C1COCCO1) of 0.0097, a photoluminescence quantum yield (in CC#N) of 0.0071 and a photoluminescence quantum yield (in CCO) of 0.0158. The photoluminescence quantum yield (in CCOC(C)=O) was 0.0068, the photoluminescence quantum yield (in CN(C)C=O) was 0.0307 and the photoluminescence quantum yield (in CO) was 0.0157. It also gave a photoluminescence quantum yield (in CS(C)=O) of 0.0263, a photoluminescence quantum yield (in Cc1ccccc1) of 0.0061 and a photoluminescence quantum yield (in ClCCl) of 0.0066.

CCCCCCc1ccc(-n2c3[n+](c4c5ccccc5c5ccccc5c42)[B-](C)(C)c2cc(-n4c5ccccc5c5ccccc54)ccc2-3)cc1 gave a photoluminescence quantum yield (in C1CCOC1) of 0.82, a photoluminescence quantum yield (in CC#N) of 0.71 and a photoluminescence quantum yield (in Cc1ccccc1) of 0.76. For the same molecule, the photoluminescence quantum yield (in ClCCl) was 0.83.

CCOC(=O)c1ccccc1-c1c2ccc(=[N+](CC)CC)cc-2oc2c1c(=O)oc1cc3c(cc12)CCCN3C showed a photoluminescence quantum yield (in CCO) of 0.04 and a photoluminescence quantum yield (in ClC(Cl)Cl) of 0.33.

In the case of C1=Cc2ccc3ccccc3c2NB1c1ccccc1, the photoluminescence quantum yield (in C1CCCCC1) is reported as 0.57.

For C[Si](C)(C)c1ccc2ccc3cccc4ccc1c2c34, the photoluminescence quantum yield (in CCCCCC) was 0.23, the photoluminescence quantum yield (in CO) was 0.22 and the photoluminescence quantum yield (in ClCCl) was 0.36.

Work on COC(=O)c1ccc(/C=C2\N=C(c3ccc([N+](=O)[O-])cc3)NC2=O)cc1 yielded a photoluminescence quantum yield (in C1COCCO1) of 0.258.

CCCCn1c(-c2ccc(-c3ccc(-c4ccc(-c5n(CCCC)c6ccccc6[n+]5CCCC)cc4)cc3)cc2)[n+](CCCC)c2ccccc21 gave a photoluminescence quantum yield (in O) of 0.77.

Work on CCC1=C(C)C2=Cc3c4ccccc4c4n3[B-](c3ccccc3)(Oc3ccccc3-4)[N+]2=C1C (stereo not given) yielded a photoluminescence quantum yield (in CC#N) of 0.75, a photoluminescence quantum yield (in CCCCCC) of 0.77 and a photoluminescence quantum yield (in Cc1ccccc1) of 0.64. The photoluminescence quantum yield (in ClCCl) was 0.75.

In the case of CCCCN1C(=O)c2ccc3c4ccc5c6c(ccc(c7ccc(c2c37)C1=O)c64)C(=O)N(CCCC)C5=O, the photoluminescence quantum yield (in ClC(Cl)Cl) is reported as 0.98.

With F[B-]1(F)n2c(c3cc4ccccc4cc3c2-c2ccccc2)C=C2c3cc4ccccc4cc3C(c3ccccc3)=[N+]21 the photoluminescence quantum yield (in C1CCOC1) was 0.16, the photoluminescence quantum yield (in CN(C)C=O) was 0.14 and the photoluminescence quantum yield (in ClCCl) was 0.16. It also gave a photoluminescence quantum yield (in c1ccccc1) of 0.21.

With CN(C)c1ccc(-c2c(/C=C3/C=Cc4ccccc4N3C)c(=O)c2=O)cc1 the photoluminescence quantum yield (in C1CCCCC1) was 0.0301, the photoluminescence quantum yield (in Cc1ccccc1) was 0.0256 and the photoluminescence quantum yield (in ClCCl) was 0.001.

Molecule C(/C=C/Nc1ccccc1)=[NH+]c1ccccc1 has a photoluminescence quantum yield (in CS(C)=O) of 0.08.

With COc1cc(N(c2ccccc2)c2ccc(C=C(C#N)C#N)c(OC)c2)ccc1C=C(C#N)C#N the photoluminescence quantum yield (in C1COCCO1) was 0.035, the photoluminescence quantum yield (in CC#N) was 0.008 and the photoluminescence quantum yield (in CC(C)=O) was 0.017. The photoluminescence quantum yield (in CCOC(C)=O) was 0.085, the photoluminescence quantum yield (in CN(C)C=O) was 0.073 and the photoluminescence quantum yield (in CO) was 0.039. The photoluminescence quantum yield (in Cc1ccccc1) was 0.032, the photoluminescence quantum yield (in ClC(Cl)Cl) was 0.076 and the photoluminescence quantum yield (in ClCCl) was 0.072.

For CC1=[N+]2C(=C(Oc3ccc4c(c3)CC[C@@H]3[C@@H]4CC[C@]4(C)C(=O)CC[C@@H]34)c3ccc(C)n3[B-]2(F)F)C=C1c1cc2n(c1)[B-](F)(F)[N+]1=CC=CC1=C2c1c(C)cc(C)cc1C, the photoluminescence quantum yield (in C1CCCCC1) was 0.52 and the photoluminescence quantum yield (in CCOC(C)=O) was 0.12.

With C[Si](C)(c1cccc2ccccc12)[Si](C)(C)[Si](C)(C)[Si](C)(C)c1c2ccccc2cc2ccccc12 the photoluminescence quantum yield (in C1CCCCC1) was 0.65 and the photoluminescence quantum yield (in CC#N) was 0.08.

Work on CC1=N/C(=C\c2ccncc2)C(=O)N1C yielded a photoluminescence quantum yield (in C1COCCO1) of 0.165, a photoluminescence quantum yield (in CC#N) of 0.047 and a photoluminescence quantum yield (in CCO) of 0.033. The photoluminescence quantum yield (in CCOC(C)=O) was 0.089 and the photoluminescence quantum yield (in O) was 0.0065.

Work on CCOC(=O)c1sc(SC)c2c(=O)[nH]nnc12 yielded a photoluminescence quantum yield (in C1CCOC1) of 0.0075, a photoluminescence quantum yield (in CC#N) of 0.018 and a photoluminescence quantum yield (in CCO) of 0.023. It also gave a photoluminescence quantum yield (in CN(C)C=O) of 0.0037, a photoluminescence quantum yield (in CO) of 0.029 and a photoluminescence quantum yield (in CS(C)=O) of 0.0054.

With c1ccc(-c2nc(-c3ccc(-c4ccc(-c5nc(-c6ccccc6)c(-c6ccccc6)o5)cc4)cc3)oc2-c2ccccc2)cc1 the photoluminescence quantum yield (in C1COCCO1) was 0.74.

CCC/N=C/c1cc2ccc(N(C)C)cc2cc1OC gave a photoluminescence quantum yield (in CS(C)=O) of 0.61.

With COc1ccc(/C=C/c2nc(/C=C/c3ccc(N(c4ccccc4)c4ccccc4)cc3)cc(/C=C/c3ccc(N(c4ccccc4)c4ccccc4)cc3)n2)cc1 the photoluminescence quantum yield (in ClCCl) was 0.91.

F[B-]1(F)OC(C#Cc2ccccc2)=CC(c2ccccc2)=[O+]1 gave a photoluminescence quantum yield (in ClCCl) of 0.43.

Cc1ccc2c(c1)C(=O)c1ccncc1-2 gave a photoluminescence quantum yield (in CC#N) of 0.019, a photoluminescence quantum yield (in CCCCCC) of 0.0032 and a photoluminescence quantum yield (in CCOC(C)=O) of 0.036. For the same molecule, the photoluminescence quantum yield (in Cc1ccccc1) was 0.031 and the photoluminescence quantum yield (in ClCCl) was 0.022.

With C1=C(c2ccccc2)C(c2ccccc2)=CC1c1ccccc1 the photoluminescence quantum yield (in C1CCOC1) was 0.0137.

F[B-]1(F)n2c(c3cccc4cccc2c43)=Nc2ccc3ccccc3[n+]21 showed a photoluminescence quantum yield (in C1CCOC1) of 0.98, a photoluminescence quantum yield (in CC#N) of 0.99 and a photoluminescence quantum yield (in CCCCCC) of 0.63. For the same molecule, the photoluminescence quantum yield (in Cc1ccccc1) was 0.99 and the photoluminescence quantum yield (in ClCCl) was 0.99.

Molecule CC(=O)c1ccc(-c2nc3ccc(N(C)C)c(Cl)c3s2)cc1 has a photoluminescence quantum yield (in C1CCCCC1) of 0.5, a photoluminescence quantum yield (in CC#N) of 0.7 and a photoluminescence quantum yield (in CO) of 0.054. The photoluminescence quantum yield (in ClC(Cl)Cl) was 0.9.

CCC1=C(C)C2=C(C)c3cccn3[B-](F)(F)[N+]2=C1C showed a photoluminescence quantum yield (in C1CCCCC1) of 0.96, a photoluminescence quantum yield (in CC(C)=O) of 0.79 and a photoluminescence quantum yield (in CCO) of 0.84. For the same molecule, the photoluminescence quantum yield (in CCOC(C)=O) was 0.84, the photoluminescence quantum yield (in CO) was 0.76 and the photoluminescence quantum yield (in OCC(F)(F)F) was 0.75.

With CCCCN(CCCC)c1ccc(C#Cc2cc(C#Cc3ccc(C#N)cc3)c(C#Cc3ccc(C#N)cc3)cc2C#Cc2ccc(N(CCCC)CCCC)cc2)cc1 the photoluminescence quantum yield (in ClCCl) was 0.26.

c1ccc(N(c2ccccc2)c2ccc(-c3ccc4c(c3)C3(c5ccccc5Oc5ccccc53)c3cc(-c5ccc(N(c6ccccc6)c6ccccc6)cc5)ccc3-4)cc2)cc1 showed a photoluminescence quantum yield (in ClCCl) of 0.91 and a photoluminescence quantum yield (in c1cc(-n2c3ccccc3c3ccccc32)cc(-n2c3ccccc3c3ccccc32)c1) of 0.9.

COC(=O)c1ccc(C#Cc2ccc(N(C)C)cc2)cc1 gave a photoluminescence quantum yield (in C1CCCCC1) of 0.351, a photoluminescence quantum yield (in C1CCOC1) of 0.15 and a photoluminescence quantum yield (in C1COCCO1) of 0.303. The photoluminescence quantum yield (in CC1CCCO1) was 0.248, the photoluminescence quantum yield (in CC#N) was 0.134 and the photoluminescence quantum yield (in CC(C)=O) was 0.428. For the same molecule, the photoluminescence quantum yield (in CC(C)CC(C)(C)C) was 0.31, the photoluminescence quantum yield (in CC(C)O) was 0.013 and the photoluminescence quantum yield (in CCCCCCCCCCCCCCCC) was 0.314. It also gave a photoluminescence quantum yield (in CCCCCCCCCCCCCCCCCl) of 0.339, a photoluminescence quantum yield (in CCOC(C)=O) of 0.14 and a photoluminescence quantum yield (in CCOCC) of 0.216. For the same molecule, the photoluminescence quantum yield (in CN(C)C=O) was 0.065, the photoluminescence quantum yield (in CO) was 0.001 and the photoluminescence quantum yield (in CS(C)=O) was 0.053. The photoluminescence quantum yield (in Cc1ccccc1) was 0.324.

Work on F[B-]1(F)n2c(-c3ccccc3)c3ccc4ccccc4c3c2N=C2c3c(ccc4ccccc34)C(c3ccccc3)=[N+]21 yielded a photoluminescence quantum yield (in ClCCl) of 0.14.

For COc1ccc(N2c3ccc4ccccc4c3-c3c4ccccc4cc[n+]3[B-]2(c2ccccc2)c2ccccc2)cc1, the photoluminescence quantum yield (in Cc1ccccc1) was 0.001.

In the case of CC(C)[Si](C#Cc1c2cc3ccccc3cc2c(C#C[Si](C)(C)C)c2cc3ccccc3cc12)(C(C)C)C(C)C, the photoluminescence quantum yield (in ClCCl) is reported as 0.13.
